According to patent US20260199426A1, “CYCLIC LIPOPEPTIDE ANTIBIOTIC COMPOUNDS FOR USE IN THE TREATMENT OF PROTEIN AGGREGATION DISEASE” (DEUTSCHES ZENTRUM FÜR NEURODEGENERATIVE ERKRANKUNGEN E. V., priority 2022, published 2026):
*1 amine or outer side, *2 acyl side, *3 side chain or, on linkers, in order; H or OH if unused. Where a SMILES comes first, the peptide text is derived from it. Bridges are numbered along the chain shown (N, C = ends). [ ]: non-standard residue; d: D form. The star is where a group is joined. ξ: configuration not given here. X2 = O=C(C(N[*:1])c1ccc(OC2OC(CO)C(O)C(O)C2OC2OC(CO)C(O)C(O)C2O)cc1)[*:2]; Undeca(2Z,4E)dienoyl(10-Me) = CC(C)CCCC/C=C/C=C\C(=O)*; Octa(2Z,4E)dienoyl(7-Me) = CC(C)C/C=C/C=C\C(=O)*; X5 = O=C(C(N[*:1])c1cc(Cl)c(O)c(Cl)c1)[*:2]; ξPhg(3-Cl-4-OH) = NC(C(=O)O)c1ccc(O)c(Cl)c1; X1 = NC(=O)C(O[*:3])C(N[*:1])C(=O)[*:2]; X4 = N=C1NCC(CC(N[*:1])C(=O)[*:2])N1; Hpg = N[CH](C(=O)O)c1ccc(O)cc1; X3 = CCC(C)CCCC/C=C/C=C\C(=O)*; Cit = NC(=O)NCCC[CH](N)C(=O)O; Orn = NCCC[CH](N)C(=O)O; X6 = Cc1ccccc1CC(=O)*

Key:
[1] = biological target: N-terminally acetylated alpha-synuclein (Asyn) (Homo sapiens, UniProt P37840); assay: Seeded α-synuclein aggregation assay (ThT fluorescence, TEM); format: biochemical; conditions: for in vitro aggregation of alpha-synuclein (ThT fluorescence): 3-fold excess of compound, 25 μM Asyn monomers, 1% (v/v) fibril seeds, 37° C.; for Asyn fibril morphology (TEM) / Asyn oligomer formation (TEM): compound/Asyn mixtures
Experimental: (§1) (A, B) Thioflavin-T (ThT) fluorescence curves of N-terminally acetylated alpha-synuclein (Asyn) in the absence (cross) and presence of a 3-fold excess (white circles) of compound. […] Quantitative analysis of Asyn aggregation kinetics was performed by nonlinear regression with sigmoidal fitting to determine the midpoint value (Tm) of the fluorescence curve as well as the fluorescence span. Unpaired two-tailed t-test was performed to test the null hypothesis (p≤0.0332(*), p≤0.002(**), p≤0.0002 (***), p≤0.0001 (****)). […] (C) TEM imaging analysis of the compound/Asyn mixtures. Scale bars correspond to 200 nm.
as §1, with “ThT” for “Thioflavin-T (ThT)”, “circles or triangles)” for “circles)”
(A) ThT fluorescence curves of N-terminally acetylated alpha-synuclein (Asyn) in the absence (cross) and presence of a 3-fold excess (white circles) of compound. […] Quantitative analysis of Asyn aggregation kinetics was performed by nonlinear regression with sigmoidal fitting to determine the midpoint value (Tm) of the fluorescence curve as well as the fluorescence span.
Asyn protein stock solutions were prepared in 50 mM HEPES at pH 7.4 with 100 mM NaCl. Stocks of compounds were prepared in the same buffer (500 μM) or as 10 mM compound in DMSO. […] The microplate was likewise subjected to the incubation and fluorescence measurement program used in in vitro assay 1. After about 2-4 days of incubation, ThT fluorescence emission reached the maximal value and the Asyn fibril-containing mixture was collected as “fibril seed” mixture for subsequent Asyn aggregation experiments.

[2] = test system: Tau aggregation in HEK biosensor cells (TauRD^LM-GFP); conditions: induced by cell lysate containing Tau aggregates; 0.25 μM to 40 μM, 22 h, lipofectamine
[3] = biological target: T1, amylin (human islet amyloid polypeptide or hIAPP) (Homo sapiens, UniProt P10997); assay: Amylin aggregation assay (ThT); format: biochemical; conditions: 5 μM hIAPP monomers, various doses, 37° C.
T1 construct: 5 μM amylin (human islet amyloid polypeptide or hIAPP) monomers
T1 sequence (P10997 34-70 limits assumed): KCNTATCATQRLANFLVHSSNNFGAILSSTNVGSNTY

[4] = biological target: bovine serum albumin (BSA) (Bos taurus, UniProt P02769); conditions: Shivani A et al. 2020; cited from earlier work
bovine serum albumin (BSA), sequence (P02769 25-607): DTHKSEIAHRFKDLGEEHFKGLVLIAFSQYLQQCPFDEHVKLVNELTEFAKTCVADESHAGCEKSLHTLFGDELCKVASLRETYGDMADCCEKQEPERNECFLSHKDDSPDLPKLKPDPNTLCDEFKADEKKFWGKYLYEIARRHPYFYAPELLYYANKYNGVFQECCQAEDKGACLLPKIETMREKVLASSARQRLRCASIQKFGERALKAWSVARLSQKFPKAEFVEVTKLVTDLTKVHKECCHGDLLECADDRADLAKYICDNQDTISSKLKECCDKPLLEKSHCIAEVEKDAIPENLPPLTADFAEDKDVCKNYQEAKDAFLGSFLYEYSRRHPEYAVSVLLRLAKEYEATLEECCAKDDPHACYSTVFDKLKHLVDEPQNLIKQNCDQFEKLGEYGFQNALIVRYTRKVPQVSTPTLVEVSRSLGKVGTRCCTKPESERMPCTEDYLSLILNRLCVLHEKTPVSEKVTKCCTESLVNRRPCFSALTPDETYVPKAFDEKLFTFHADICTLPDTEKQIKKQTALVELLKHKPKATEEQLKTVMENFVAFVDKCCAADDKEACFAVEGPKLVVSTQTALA

## CC(C)CCCC/C=C/C=C\C(=O)NC(CC(=O)O)C(=O)NC1C(=O)NC(c2ccc(O)cc2)C(=O)NC(CCCN)C(=O)NC(C(C)O)C(=O)NC(c2ccc(O)cc2)C(=O)NC(c2ccc(O)cc2)C(=O)NC(C(C)O)C(=O)NC(CCCNC(N)=O)C(=O)NC(CC2CNC(=N)N2)C(=O)NC(c2ccc(O)cc2)C(=O)NC(CO)C(=O)NC(c2cc(Cl)c(O)c(Cl)c2)C(=O)NCC(=O)NC(CC2CNC(=N)N2)C(=O)NC(C)C(=O)NC(c2ccc(O)cc2)C(=O)OC1C (stereo not drawn) [Enduracidin A] ({Undeca(2Z,4E)dienoyl(10-Me)}-DT[Hpg][Orn]T[Hpg][Hpg]T[Cit][X4][Hpg]S[X5]G[X4]A[Hpg]; ester 2-C; configuration not given here)
[1]
  in vitro aggregation of alpha-synuclein (ThT fluorescence): inhibit the in vitro aggregation
  Asyn fibril morphology (TEM): shorter fibrils with a rougher surface
[2]
  inhibition of seeded Tau aggregation: showed inhibition of seeded Tau aggregation

## CCC(C)CCCC/C=C/C=C\C(=O)NC(CC(=O)O)C(=O)NC1C(=O)NC(c2ccc(O)cc2)C(=O)NC(CCCN)C(=O)NC(C(C)O)C(=O)NC(c2ccc(O)cc2)C(=O)NC(c2ccc(O)cc2)C(=O)NC(C(C)O)C(=O)NC(CCCNC(N)=O)C(=O)NC(CC2CNC(=N)N2)C(=O)NC(c2ccc(O)cc2)C(=O)NC(CO)C(=O)NC(c2cc(Cl)c(O)c(Cl)c2)C(=O)NCC(=O)NC(CC2CNC(=N)N2)C(=O)NC(C)C(=O)NC(c2ccc(O)cc2)C(=O)OC1C (stereo not drawn) [Enduracidin B] (X3-DT[Hpg][Orn]T[Hpg][Hpg]T[Cit][X4][Hpg]S[X5]G[X4]A[Hpg]; ester 2-C; configuration not given here)
[1]
  in vitro aggregation of alpha-synuclein (ThT fluorescence): inhibit the in vitro aggregation
  Asyn fibril morphology (TEM): shorter fibrils with a rougher surface
  Asyn oligomer formation (TEM): Asyn oligomer formation also competes with Asyn fibril formation
[3]
  in vitro aggregation of amylin (final ThT fluorescence, t=50 h): inhibit the in vitro aggregation of amylin

## Cc1ccccc1CC(=O)NC(CC(N)=O)C(=O)NC1C(=O)NC(c2ccc(O)cc2)C(=O)NC(CCCN)C(=O)NC(C(C)O)C(=O)NC(c2ccc(O)cc2)C(=O)NC(c2ccc(O)cc2)C(=O)NC(C(C)O)C(=O)NC(Cc2ccccc2)C(=O)NC(CCCN)C(=O)NC(c2ccc(OC3OC(CO)C(O)C(O)C3OC3OC(CO)C(O)C(O)C3O)cc2)C(=O)NC(C(C)O)C(=O)NC(c2ccc(O)cc2)C(=O)NCC(=O)NC(CC(C)C)C(=O)NC(C)C(=O)NC(c2ccc(O)c(Cl)c2)C(=O)OC1C(N)=O (stereo not drawn) [NAI-603, Ramoplanin 2-methyl-phenyl derivative NAI-603] (X6-N[X1][Hpg][Orn]T[Hpg][Hpg]TF[Orn][X2]T[Hpg]GLA[ξPhg(3-Cl-4-OH)]; ester 2-C; configuration not given here)
[3]
  in vitro aggregation of amylin (final ThT fluorescence, t=50 h): inhibit the in vitro aggregation of amylin

## CC(C)C/C=C/C=C\C(=O)NC(CC(N)=O)C(=O)NC1C(=O)NC(c2ccc(O)cc2)C(=O)NC(CCCN)C(=O)NC(C(C)O)C(=O)NC(c2ccc(O)cc2)C(=O)NC(c2ccc(O)cc2)C(=O)NC(C(C)O)C(=O)NC(Cc2ccccc2)C(=O)NC(CCCN)C(=O)NC(c2ccc(O)cc2)C(=O)NC(C(C)O)C(=O)NC(c2ccc(O)cc2)C(=O)NCC(=O)NC(CC(C)C)C(=O)NC(C)C(=O)NC(c2ccc(O)c(Cl)c2)C(=O)OC1C(N)=O (stereo not drawn) [Ramoplanin A2 Aglycon, Ramoplanin aglycon] ({Octa(2Z,4E)dienoyl(7-Me)}-N[X1][Hpg][Orn]T[Hpg][Hpg]TF[Orn][Hpg]T[Hpg]GLA[ξPhg(3-Cl-4-OH)]; ester 2-C; configuration not given here)
[1]
  in vitro aggregation of alpha-synuclein (ThT fluorescence): inhibit the in vitro aggregation
  Asyn oligomer formation (TEM): favors the formation of Asyn oligomers

## CNC(CC(C)C)C(=O)NC1C(=O)NC(CC(N)=O)C(=O)NC2C(=O)NC3C(=O)NC(C(=O)NC(C(=O)O)c4cc(O)cc(O)c4-c4cc3ccc4O)C(O)c3ccc(c(Cl)c3)Oc3cc2cc(c3OC2OC(CO)C(O)C(O)C2OC2CC(C)(N)C(O)C(C)O2)Oc2ccc(cc2Cl)C1O (stereo not drawn) [Vancomycin, reference compound]
[2]
  inhibition of seeded Tau aggregation: showed inhibition of seeded Tau aggregation

## Teicoplanin [reference compound]
[1]
  in vitro aggregation of alpha-synuclein (ThT fluorescence): inhibits the in vitro aggregation
  Asyn oligomer formation (TEM): Asyn oligomer formation competes with Asyn fibril formation
[2]
  inhibition of seeded Tau aggregation: showed inhibition of seeded Tau aggregation
[4]
  aggregation of bovine serum albumin (BSA): inhibition of the aggregation
